These are literature values, as cited in patent US9278976B2, “Aminotetrahydropyrans as dipeptidyl peptidase-IV inhibitors for the treatment of diabetes” (Merck Sharp & Dohme Corp., priority 2008, dated 2016).

For series [1] the following is noted: rats; doubled from day 7.
The conditions of series [2]: mouse, cyclophosphamide-induced neutropenia.

On to `CC(C)N1CCC(c2ccccc2)(c2ccccc2)CC1` [Prodipine, Pro-Pro-diphenyl-phosphonate], for which, in series [1], the cardiac allograft survival is recorded as 14 day.
In the case of `CC(C)[C@H](N)C(=O)N1CCC[C@H]1B(O)O` [Val-Boro-Pro], the hematopoiesis result in series [2] is on record as “stimulated hematopoiesis”.
